Assay results published in ChEMBL document CHEMBL1201862, “PubChem BioAssay data set” (2004).
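A five-concentration, 48-hour dose response in 96-well plates underlies each endpoint, interpolated linearly between surrounding concentrations. GI50 is the concentration that inhibits growth by half.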 Calls of active or inactive are those of the source. Cut-off read from the data, not from the text of the source: active = GI50 up to about 1.1 µM and inactive = higher.

How the values were obtained:
Assay in all cases: growth of human tumour cells (NCI), 48 h
786-0 = system: 786-0
A498 = system: A498
CCRF-CEM = system: CCRF-CEM
COLO 205 = system: COLO 205
HL-60 = system: HL-60
HT-29 = system: HT-29
KM12 = system: KM12
M14 = system: M14
Malme-3M = system: Malme-3M
NCI-H23 = system: NCI-H23
NCI-H522 = system: NCI-H522
SF-295 = system: SF-295
SK-OV-3 = system: SK-OV-3
SN12C = system: SN12C
SNB-75 = system: SNB-75
TK-10 = system: TK-10
U-251 = system: U-251
UACC-62 = system: UACC-62
UO-31 = system: UO-31
RPMI-8226 = system: RPMI-8226

Measured: GI50

O=C(Nc1ccc2nc(-c3ccccc3)cn2c1)Oc1ccccc1
inactive: 786-0 91 µM | A498 71.3 µM | CCRF-CEM 39.7 µM | COLO 205 48.6 µM | HL-60 30.9 µM | HT-29 43.1 µM | KM12 24.9 µM | M14 39.2 µM | Malme-3M 98.2 µM | NCI-H23 99.1 µM | NCI-H522 20.2 µM | SF-295 57.9 µM | SK-OV-3 > 100 µM | SN12C 66.8 µM | SNB-75 2.99 µM | TK-10 53.7 µM | U-251 52.7 µM | UACC-62 37.9 µM | UO-31 > 100 µM

COc1cc(C2SCC(=O)N2c2ccc(-n3c(-c4ccccc4)nc4ccccc4c3=O)cc2)ccc1O (stereo unspecified)
inactive: 786-0 > 100 µM | A498 > 100 µM | CCRF-CEM 27.2 µM | COLO 205 > 100 µM | HL-60 > 100 µM | HT-29 > 100 µM | KM12 34.4 µM | M14 > 100 µM | Malme-3M 54.7 µM | NCI-H23 > 100 µM | NCI-H522 33 µM | RPMI-8226 76.4 µM | SF-295 84.5 µM | SK-OV-3 82 µM | TK-10 > 100 µM | U-251 84.9 µM | UACC-62 26.1 µM | UO-31 11.8 µM

CC(C)NC(=O)OCc1c(COC(=O)NC(C)C)n(C)c2c1ccc1cc(Cl)c(Cl)cc12
inactive: 786-0 7.5 µM | A498 1.75 µM | CCRF-CEM 3.33 µM | COLO 205 10.9 µM | HT-29 15.9 µM | M14 15.5 µM | Malme-3M 10.8 µM | NCI-H23 12.8 µM | NCI-H522 1.49 µM | RPMI-8226 10.3 µM | SF-295 16.6 µM | SK-OV-3 21.6 µM | SNB-75 13.4 µM | TK-10 5.43 µM | U-251 15.9 µM | UACC-62 12 µM | UO-31 16.7 µM

CCCCCCCCCCCCCCCCCC(=O)Nc1ccn(C2CCC(COP(=O)(O)O)O2)c(=O)n1 (stereo unspecified)
inactive: 786-0 > 100 µM | A498 > 100 µM | CCRF-CEM > 100 µM | COLO 205 > 100 µM | HT-29 > 100 µM | KM12 > 100 µM | M14 > 100 µM | NCI-H23 > 100 µM | NCI-H522 > 100 µM | RPMI-8226 > 100 µM | SF-295 > 100 µM | SK-OV-3 > 100 µM | SN12C > 100 µM | SNB-75 > 100 µM | TK-10 > 100 µM | U-251 > 100 µM | UACC-62 > 100 µM | UO-31 > 100 µM

Cc1ccc(S(=O)(=O)OC(C=O)C(O)C(O)COC(c2ccccc2)(c2ccccc2)c2ccccc2)cc1 (stereo unspecified)
inactive: 786-0 14.1 µM | A498 18 µM | HT-29 12.2 µM | KM12 11.9 µM | M14 16.1 µM | Malme-3M 19 µM | NCI-H522 13.1 µM | RPMI-8226 12.2 µM | SF-295 12.2 µM | SK-OV-3 15 µM | SN12C 15.5 µM | SNB-75 14.9 µM | U-251 14.4 µM | UACC-62 15.2 µM | UO-31 16.8 µM

C[Si]12OCCCN(CCO1)CCO2
inactive: 786-0 > 100 µM | A498 > 100 µM | CCRF-CEM > 100 µM | COLO 205 > 100 µM | HT-29 > 100 µM | KM12 > 100 µM | Malme-3M > 100 µM | NCI-H23 > 100 µM | NCI-H522 > 100 µM | RPMI-8226 > 100 µM | SF-295 > 100 µM | SK-OV-3 > 100 µM | SN12C > 100 µM | SNB-75 > 100 µM | TK-10 > 100 µM | U-251 > 100 µM | UACC-62 > 100 µM | UO-31 > 100 µM

O=C(Nc1cccc(Cl)c1)c1cc2cc(/N=N/c3ccc(Br)cc3)ccc2oc1=O
inactive: 786-0 25.5 µM | A498 > 100 µM | COLO 205 41.4 µM | HT-29 66.7 µM | KM12 19.2 µM | M14 22.3 µM | Malme-3M > 100 µM | NCI-H23 22.6 µM | NCI-H522 49.4 µM | RPMI-8226 33.2 µM | SF-295 42 µM | SK-OV-3 51.2 µM | SN12C 32.1 µM | SNB-75 37 µM | TK-10 51.1 µM | U-251 26.7 µM | UACC-62 14.1 µM | UO-31 14 µM

Cc1ccc(S(=O)(=O)[C@@H](Cl)[C@H]2N=C(Cl)NN=C2c2ccccc2)cc1
inactive: 786-0 26.4 µM | A498 15.5 µM | CCRF-CEM 20.3 µM | COLO 205 26.9 µM | HT-29 33.5 µM | KM12 22.6 µM | M14 21.2 µM | Malme-3M 20.7 µM | NCI-H23 20.6 µM | NCI-H522 15.9 µM | RPMI-8226 27.6 µM | SF-295 41.4 µM | SK-OV-3 32.6 µM | SN12C 21.7 µM | SNB-75 27.9 µM | TK-10 41.8 µM | U-251 21.5 µM | UACC-62 15.1 µM | UO-31 18.1 µM

C=CCn1c(-c2ccc(-c3cs/c(=N\N=O)n3CC=C)cc2)cs/c1=N\N=O
inactive: 786-0 62.5 µM | A498 > 100 µM | CCRF-CEM > 100 µM | COLO 205 > 100 µM | HL-60 > 100 µM | HT-29 > 100 µM | KM12 > 100 µM | M14 > 100 µM | Malme-3M > 100 µM | NCI-H23 > 100 µM | NCI-H522 83.2 µM | SF-295 91 µM | SK-OV-3 40.7 µM | SN12C 86.9 µM | SNB-75 20.9 µM | TK-10 > 100 µM | U-251 61.1 µM | UACC-62 > 100 µM | UO-31 > 100 µM

CC1=CC2=C(C#N)C(=O)OC2(C)C(c2ccccc2)C1 (stereo unspecified)
inactive: 786-0 > 100 µM | A498 > 100 µM | HT-29 > 100 µM | KM12 > 100 µM | M14 > 100 µM | Malme-3M > 100 µM | NCI-H522 > 100 µM | RPMI-8226 77.8 µM | SF-295 > 100 µM | SK-OV-3 > 100 µM | SN12C > 100 µM | SNB-75 16.2 µM | TK-10 > 100 µM | U-251 > 100 µM | UACC-62 > 100 µM | UO-31 > 100 µM

Cn1cnc([N+](=O)[O-])c1Sc1nnnn1-c1ccccc1
inactive: 786-0 16.7 µM | A498 18.7 µM | CCRF-CEM 2.39 µM | COLO 205 8.09 µM | HT-29 15.7 µM | KM12 17.4 µM | M14 10.9 µM | Malme-3M 7.76 µM | NCI-H23 19.4 µM | NCI-H522 2.34 µM | RPMI-8226 11.4 µM | SF-295 17.8 µM | SK-OV-3 46.9 µM | SN12C 15.7 µM | SNB-75 16.4 µM | TK-10 17.9 µM | U-251 13 µM | UACC-62 13.9 µM | UO-31 13.7 µM
